# Literature values, collected in US20040101478A1, “In vivo methods of determining activity of receptor-type kinase inhibitors” (priority 2003, published 2004).
# Biological target: KDR kinase (Homo sapiens, UniProt P35968)
# Settings: Kasahara et al., 2000, J. Clin. Invest. 106: 1311-1319; cited from earlier work
# Chain of KDR kinase (P35968 20-1356): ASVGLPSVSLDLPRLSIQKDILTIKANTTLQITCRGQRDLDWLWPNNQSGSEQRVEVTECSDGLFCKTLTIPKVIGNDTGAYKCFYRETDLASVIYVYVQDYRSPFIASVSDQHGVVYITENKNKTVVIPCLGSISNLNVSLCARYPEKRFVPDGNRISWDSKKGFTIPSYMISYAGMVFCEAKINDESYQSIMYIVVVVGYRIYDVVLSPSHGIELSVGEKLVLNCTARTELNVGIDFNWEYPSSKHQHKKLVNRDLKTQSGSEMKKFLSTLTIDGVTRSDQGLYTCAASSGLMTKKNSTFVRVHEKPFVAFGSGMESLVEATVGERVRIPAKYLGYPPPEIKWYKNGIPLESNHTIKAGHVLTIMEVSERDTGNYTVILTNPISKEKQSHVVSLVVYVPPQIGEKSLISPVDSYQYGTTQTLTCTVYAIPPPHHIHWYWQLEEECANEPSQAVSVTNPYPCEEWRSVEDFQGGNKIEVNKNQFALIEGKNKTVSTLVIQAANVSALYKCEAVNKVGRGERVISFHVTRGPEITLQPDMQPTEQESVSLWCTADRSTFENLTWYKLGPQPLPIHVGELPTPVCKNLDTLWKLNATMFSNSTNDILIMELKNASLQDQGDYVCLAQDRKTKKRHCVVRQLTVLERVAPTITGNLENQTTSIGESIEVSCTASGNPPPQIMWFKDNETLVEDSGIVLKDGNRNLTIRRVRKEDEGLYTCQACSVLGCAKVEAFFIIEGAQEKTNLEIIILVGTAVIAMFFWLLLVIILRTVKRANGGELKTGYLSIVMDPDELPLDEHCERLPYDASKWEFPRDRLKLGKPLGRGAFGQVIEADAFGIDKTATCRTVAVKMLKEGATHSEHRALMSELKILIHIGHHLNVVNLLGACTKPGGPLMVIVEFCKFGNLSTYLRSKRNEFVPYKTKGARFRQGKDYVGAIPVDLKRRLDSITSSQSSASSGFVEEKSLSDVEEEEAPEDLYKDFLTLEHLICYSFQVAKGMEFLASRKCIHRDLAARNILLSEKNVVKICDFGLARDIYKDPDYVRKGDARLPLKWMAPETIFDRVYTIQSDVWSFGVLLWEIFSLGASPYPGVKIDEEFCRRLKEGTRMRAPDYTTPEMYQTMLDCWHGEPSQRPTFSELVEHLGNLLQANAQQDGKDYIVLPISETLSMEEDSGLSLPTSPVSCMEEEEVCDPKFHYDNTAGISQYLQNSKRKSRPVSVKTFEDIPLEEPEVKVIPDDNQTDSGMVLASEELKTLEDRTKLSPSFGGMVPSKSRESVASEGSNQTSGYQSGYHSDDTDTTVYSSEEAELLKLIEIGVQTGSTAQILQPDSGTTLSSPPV
smiles,measurement,value
Cc1cc(C)c(/C=C2\C(=O)Nc3ccccc32)[nH]1 [SU5416],inhibition of VEGF-induced phosphorylation,inhibition of VEGF-induced phosphorylation
